From patent publication US6057371A, “Sigma receptor ligands and the use thereof” (Virginia Commonwealth University, priority 1992, dated 2000)
Where two headings read alike, the source gives them in different places.

Tests used:
sigma-2 binding site = target: T1, sigma-2 binding site (Cavia porcellus, UniProt H0V073); assay: biochemical; set-up: species or system guinea pig; conditions: for Ki: Table 10, read-out: SIGMA-2 KI vs. 3H-DTG + PENTAZOCINE MEAN
T1 construct: Guinea pig whole membrane preparations (P2 microsomal fraction); from tissue; host or cells: guinea pig membranes (P2 microsomal fraction), as described by Weber et al; brain inferred from the sister test b489
T1 sequence (H0V073 1-176): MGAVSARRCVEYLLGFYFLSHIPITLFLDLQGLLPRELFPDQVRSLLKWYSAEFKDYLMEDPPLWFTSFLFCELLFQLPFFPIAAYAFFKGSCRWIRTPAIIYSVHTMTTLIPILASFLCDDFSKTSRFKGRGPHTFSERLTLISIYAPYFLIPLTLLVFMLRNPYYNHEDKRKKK
Procedure: For the standard equilibrium assay, the mixtures were incubated for 30 min. at room temperature, then filtered and the radioactivity determined as described above.

sigma-1 binding site = target: T2, sigma-1 binding site (Cavia porcellus, UniProt Q60492); assay: biochemical; set-up: species or system guinea pig
T2 construct: Guinea pig whole membrane preparations (P2 microsomal fraction); from tissue; host or cells: guinea pig membranes (P2 microsomal fraction), as described by Weber et al; brain inferred from the sister test b489
Procedure: [^3 H]DTG was purchased from DuPont/NEN.
The radioactivity on the filters was determined by scintillation spectrometry at an efficiency of about 50% using Cytoscint (ICN) scintillation fluid.

5-HT1A receptor = target: T3, 5-HT1A receptor (Rattus norvegicus, UniProt P19327); assay: biochemical; format: binding; set-up: 47: 529-540 (1986); from tissue; host or cells: brain tissue, inferred from the cited method (rat frontal cortex); conditions: Table 6; read-out: 5HT-1A (nM) MEAN
T3 sequence (P19327 1-422): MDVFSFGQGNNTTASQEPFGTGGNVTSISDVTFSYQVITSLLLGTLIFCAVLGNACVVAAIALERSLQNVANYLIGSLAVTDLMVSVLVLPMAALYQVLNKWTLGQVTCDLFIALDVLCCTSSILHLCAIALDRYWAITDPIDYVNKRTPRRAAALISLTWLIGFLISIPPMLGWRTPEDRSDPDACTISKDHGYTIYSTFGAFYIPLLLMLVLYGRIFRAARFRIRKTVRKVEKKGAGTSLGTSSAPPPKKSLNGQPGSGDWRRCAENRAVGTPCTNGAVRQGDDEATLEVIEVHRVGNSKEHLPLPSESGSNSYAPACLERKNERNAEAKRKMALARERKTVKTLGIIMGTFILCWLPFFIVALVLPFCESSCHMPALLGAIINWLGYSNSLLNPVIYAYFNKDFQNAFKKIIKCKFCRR
Procedure: (§1) Further sigma receptor binding assays against [^3 H]DTG and 5HT-1A binding assays were conducted according to the procedure outlined in the previous examples.

sigma receptor = assay: Sigma receptor binding, [^3 H]DTG, brain membranes (both sigma-1 and sigma-2 sites); set-up: species or system guinea pig; conditions: for IC50: Table 6, [^3 H]DTG
Procedure: Sigma receptor binding assays using guinea pig brain membrane homogenates and the radioligand [^3 H]DTG were conducted as described by Weber et al.. […] Briefly, frozen whole guinea-pig brains (Biotrol, Indianapolis, Ind.) were homogenized in 10 volumes (w/v) of ice-cold 320 mM sucrose using a Brinkman polytron. The homogenate was centrifuged at 1,000× g for 20 minutes at 4° C. The supernatant was centrifuged at 20,000× g for 20 minutes at 4° C. The resulting pellet was resuspended in 10 initial volumes of 50 mM Tris/HCl buffer at pH 7.4 and centrifuged at 20,000× g for 20 minutes at 4° C. The resulting pellet was resuspended in 5 initial volumes ice-cold 50 mM Tris/Hcl […], and the final volume was adjusted to yield a protein concentration of 3 mg/ml. Aliquots of 20-ml were stored at -70° C. until used, with no detectable loss of binding.
The protein concentration in the 1-ml final incubation volume was 800 ug/ml, corresponding to 32 mg of brain tissue (original wet weight) and to a tissue concentration within the linear range for specific binding. […] Incubations were terminated after 90 minutes at room temperature by addition of 4 ml of ice-cold 50 mM Tris/HCl (pH 7.4) and rapid filtration of the membrane suspension through Whatman GF/B glass-fiber filters under vacuum, using a 48-well cell harvester (Brandel). The filters were washed 2 times with 4 ml of 50 mM Tris/HCl (pH 7.4). Each filter was suspended in 10 ml Cytoscint (ICI), and radioactivity was measured by liquid scintillation spectrometry at a counting efficiency of approximately 50%. IC50 values were determined by non-linear regression analyis.
as §1
Radioligand Binding. […] Briefly, membranes (P2 microsomal fraction) were diluted 1:3 with 50 mM Tris HCl (pH 7.4) and 0.4 mL was combined with 50 μL [^3 H]DTG (1-2 nM final concentration) and 50 μL of competing drug or buffer. After 90 min at room temperature, incubation was terminated by rapid filtration under vacuum through Whatman GF/B glass fiber filters using a Brandel 48-well cell harvester. Filters were washed three times with 5 mL of cold Tris HCl buffer and each filter was suspended in 5 mL of Cytoscint (ICN Biomedical). Radioactivity was measured by liquid scintillation spectrometry at a counting efficiency of 50%.

[1] = Table 10, read-out: SIGMA-1 KI vs. 3H-PENTAZOCINE MEAN
[2] = Table 18, read-out: IC50 (nM) at sigma-2
[3] = Table 7, Phenyl-(CH2)x -NH--(CH2)y -Phenyl, read-out: Ki
[4] = running text, Examples 5 and 6, read-out: sigma receptor Ki
[5] = less than about 0.1, see Table 10

T2 sequence (Q60492 whole entry): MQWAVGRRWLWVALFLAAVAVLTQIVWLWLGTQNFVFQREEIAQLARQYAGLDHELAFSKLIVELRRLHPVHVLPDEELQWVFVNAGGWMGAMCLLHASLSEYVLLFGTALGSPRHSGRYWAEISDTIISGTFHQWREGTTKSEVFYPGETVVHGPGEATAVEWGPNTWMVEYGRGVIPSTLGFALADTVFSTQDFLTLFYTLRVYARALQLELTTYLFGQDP

SMILES | Ki (sigma-2 binding site) | Ki (sigma-1 binding site; [1]) | IC50 (5-HT1A receptor) | IC50 (sigma-2 binding site; [2]) | IC50 (sigma receptor) | Ki (sigma receptor; [3]) | S1/S2 Ratio (sigma-1 binding site; Table 10, sigma-1/sigma-2) | IC50 ratio of sigma-1/sigma-2 (sigma-1 selective compounds) (sigma-1 binding site; [5]) | other results
CCCN1CCN(c2ccccc2)CC1 [Compound 64, N-Phenyl-N'-propylpiperazine] | 538 nM | 81.6 nM | 784 nM | – | – | – | – | – | –
c1ccc(CCCCCNCCc2ccccc2)cc1 [Compound 89, N-(5-phenylpentyl)phenethylamine] | 14.6 nM | – | 106 nM | 15 nM | 2.74 nM | 2.4 nM | – | – | Ki (sigma receptor; [4]): 2.4 nM
CN1CCN(CC/C=C\c2cccc(C(F)(F)F)c2)CC1 [Compound 105, N-(4-(3-trifluoromethyl)-3-(Z)-butenyl)-N-methylpiperazine] | 177 nM | 1.5 nM | 4960 nM | – | 9.5 nM | – | 0.008 | less than 0.1 | –
c1ccc(CCCCCN2CCC(Cc3ccccc3)CC2)cc1 [Compound 117, N-(5-phenylpentyl)-4-benzylpiperidine] | 2.78 nM | 0.58 nM | 781 nM | – | 2.11 nM | – | 0.210 | – | –
c1ccc(CCCCCNCCCCc2ccccc2)cc1 [Compound 76, N-(5-phenylpentyl)-(4-phenyl)butylamine] | 68 nM | – | 119 nM | 48 nM | 2.65 nM | 2.5 nM | – | – | IC50 (sigma-1 binding site): 0.48 nM; IC50 ratio of sigma-1/sigma-2 (sigma-1 selective compounds) (sigma-1 binding site): less than 0.1; Ki (sigma-1 binding site; SIGMA-1 KI vs. 3H-P[…]): 0.48 nM; S1/S2 Ratio (sigma-1 binding site; guinea pig, microsomes): 0.007
CNCCCCCC1CCCCC1 [Compound 127, N-methyl-5-cyclohexylpentylamine] | 346 nM | 6.78 nM | – | – | 10.6 nM | – | 0.020 | less than 0.1 | sigma-2/sigma-1 selectivity (sigma-1 binding site; Example 8): 51; IC50 (sigma-1 binding site; Table 16, read-out: Sigma-1 IC50): 6.8 nM; Ki (sigma receptor; [4]): 10 nM
CCCN(C)CCCCCc1ccccc1 [Compound 112, N-methyl-N-propyl-5-phenylpentylamine] | 40.5 nM | – | 8240 nM | – | 2.65 nM | – | – | – | IC50 (sigma-2 binding site; Example 9, read-out: sigma-2 IC50): 40 nM; IC50 (sigma-1 binding site; Example 8, read-out: sigma-1 IC50, text): 0.29 nM; Ki (sigma-1 binding site; read-out: SIGMA-1 KI vs. 3H-P[…]): 0.29 nM; Ki (sigma receptor; running text, Examples 5 and 6, listed as N-methyl-N-propyl-5-phenylpentylamine, read-out: sigma receptor Ki): 2.2 nM
CCC(Cc1ccccc1)NCCCCc1ccccc1 (stereo not shown) [Compound 101, N-(4-phenylbutyl)-1-phenyl-2-butylamine] | 104 nM | 2.7 nM | – | – | 15.7 nM | – | 0.026 | less than 0.1 | –
c1ccc(CCCCCNCc2ccccc2)cc1 [Compound 77, N-(5-phenylpentyl)benzylamine] | 34.3 nM | 0.32 nM | 759 nM | 34 nM | 2.07 nM | 2 nM | 0.009 | less than 0.1 | IC50 (sigma-1 binding site; Table 15, read-out: IC50 (nM) at sigma-1): 0.32 nM
c1ccc(CCCCCN2CCCCC2)cc1 [Compound 124, N-(5-phenylpentyl)piperidine] | 49.9 nM | 0.48 nM | – | – | 2.05 nM | – | 0.010 | less than 0.1 | sigma-2/sigma-1 selectivity (sigma-1 binding site; Example 8): 100
